# Results from US20150246938A1, “NOVEL OLEFIN DERIVATIVE” (SHIONOGI & CO., LTD., priority 2011, published 2015).
# Molecular target: T1, recombinant human ACC2 (Homo sapiens, UniProt O00763)
# T1 construct: a cDNA encoding human ACC2 (27-2458) was cloned from human kidney cDNA library (Clontech); His-tag (N); made in house; host or cells: Sf-9 insect cells (Bac-to-Bac baculovirus)
# Assay: Measurement of inhibitory activity on human ACC2 (MALDI-TOF MS, acetyl CoA to malonyl CoA conversion)
# Format: biochemical
# Settings: not given
# T1 sequence (O00763 27-2458): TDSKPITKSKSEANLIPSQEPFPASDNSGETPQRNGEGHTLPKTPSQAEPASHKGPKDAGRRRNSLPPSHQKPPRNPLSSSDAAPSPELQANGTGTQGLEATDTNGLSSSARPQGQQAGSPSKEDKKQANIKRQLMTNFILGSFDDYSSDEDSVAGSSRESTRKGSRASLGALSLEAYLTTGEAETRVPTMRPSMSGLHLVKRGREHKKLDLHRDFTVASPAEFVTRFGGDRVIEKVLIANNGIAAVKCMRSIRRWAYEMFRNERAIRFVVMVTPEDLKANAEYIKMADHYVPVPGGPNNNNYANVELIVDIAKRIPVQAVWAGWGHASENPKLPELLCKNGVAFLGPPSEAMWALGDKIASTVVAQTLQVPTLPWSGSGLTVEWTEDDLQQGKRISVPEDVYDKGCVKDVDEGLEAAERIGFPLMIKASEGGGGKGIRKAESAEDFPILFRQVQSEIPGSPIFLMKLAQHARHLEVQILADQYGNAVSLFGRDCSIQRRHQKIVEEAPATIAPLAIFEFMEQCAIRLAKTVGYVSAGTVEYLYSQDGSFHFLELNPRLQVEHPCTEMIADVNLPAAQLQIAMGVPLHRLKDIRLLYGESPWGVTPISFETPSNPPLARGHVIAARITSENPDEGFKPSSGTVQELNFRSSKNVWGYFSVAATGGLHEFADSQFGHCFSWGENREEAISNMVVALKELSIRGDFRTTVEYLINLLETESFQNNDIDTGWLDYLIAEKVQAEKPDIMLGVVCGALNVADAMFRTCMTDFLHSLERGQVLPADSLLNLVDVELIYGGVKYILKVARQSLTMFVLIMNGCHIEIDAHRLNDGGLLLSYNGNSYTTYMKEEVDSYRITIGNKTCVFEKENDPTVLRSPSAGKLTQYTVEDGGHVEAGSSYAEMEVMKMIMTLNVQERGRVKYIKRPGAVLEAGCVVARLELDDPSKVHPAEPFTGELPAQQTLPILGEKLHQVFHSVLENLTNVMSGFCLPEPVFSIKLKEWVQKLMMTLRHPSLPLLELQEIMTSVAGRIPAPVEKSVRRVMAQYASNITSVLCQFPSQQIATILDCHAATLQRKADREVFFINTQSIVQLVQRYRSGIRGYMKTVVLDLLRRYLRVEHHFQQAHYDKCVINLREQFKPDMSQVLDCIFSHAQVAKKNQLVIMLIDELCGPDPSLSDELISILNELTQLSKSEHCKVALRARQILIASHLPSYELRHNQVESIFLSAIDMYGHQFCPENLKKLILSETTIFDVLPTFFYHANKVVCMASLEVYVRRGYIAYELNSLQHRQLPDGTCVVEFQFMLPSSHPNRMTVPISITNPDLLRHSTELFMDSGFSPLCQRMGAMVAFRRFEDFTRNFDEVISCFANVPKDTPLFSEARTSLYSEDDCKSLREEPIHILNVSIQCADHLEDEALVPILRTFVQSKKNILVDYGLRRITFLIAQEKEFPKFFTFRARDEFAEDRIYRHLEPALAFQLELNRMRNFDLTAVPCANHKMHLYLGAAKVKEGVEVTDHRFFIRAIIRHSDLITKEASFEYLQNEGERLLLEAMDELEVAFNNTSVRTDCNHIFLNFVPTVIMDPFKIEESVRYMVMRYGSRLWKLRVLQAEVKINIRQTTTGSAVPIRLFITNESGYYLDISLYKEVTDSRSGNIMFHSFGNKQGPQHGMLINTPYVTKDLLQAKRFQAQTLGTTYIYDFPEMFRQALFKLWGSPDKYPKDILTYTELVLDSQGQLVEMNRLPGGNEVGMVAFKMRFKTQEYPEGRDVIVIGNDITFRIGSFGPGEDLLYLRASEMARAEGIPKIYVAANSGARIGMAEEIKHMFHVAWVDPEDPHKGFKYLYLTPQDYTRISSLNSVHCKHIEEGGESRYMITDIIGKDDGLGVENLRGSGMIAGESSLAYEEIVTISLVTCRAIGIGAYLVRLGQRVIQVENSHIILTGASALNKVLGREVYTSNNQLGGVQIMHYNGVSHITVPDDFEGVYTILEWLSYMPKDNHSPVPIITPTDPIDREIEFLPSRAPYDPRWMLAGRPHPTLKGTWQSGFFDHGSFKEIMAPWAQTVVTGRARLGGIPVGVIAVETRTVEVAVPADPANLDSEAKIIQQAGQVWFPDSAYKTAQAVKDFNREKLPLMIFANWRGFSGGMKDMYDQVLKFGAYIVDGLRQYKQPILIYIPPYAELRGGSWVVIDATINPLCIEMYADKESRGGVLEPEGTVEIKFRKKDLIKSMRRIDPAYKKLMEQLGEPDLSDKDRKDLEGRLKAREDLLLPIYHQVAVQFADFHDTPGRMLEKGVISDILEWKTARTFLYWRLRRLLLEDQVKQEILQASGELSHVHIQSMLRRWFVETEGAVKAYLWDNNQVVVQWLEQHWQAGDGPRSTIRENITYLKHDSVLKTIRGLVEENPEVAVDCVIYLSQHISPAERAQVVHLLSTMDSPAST
row,SMILES,IC50
1,COc1c(OCC2CC2)ccc(Oc2cnc(/C=C/[C@H](C)NC(C)=O)cn2)c1Cl [Compound I-394],12 nM
2,CC(=O)N[C@@H](C)/C=C/c1cnc(Oc2ccc(C(C)(C)C(F)(F)F)cc2Cl)cn1 [Compound I-428],170 nM
3,CCCc1ccc(Oc2ncc(/C=C/[C@H](C)NC(C)=O)s2)c(Cl)c1 [Compound I-411],77 nM

# Further lines, results first:
row,IC50,SMILES
1,47 nM,CCCc1ccc(Oc2ccc(/C=C/[C@H](C)NC(=O)c3ccnc(C(=O)NCCO)c3)cn2)c(Cl)c1 [Compound I-391]
2,22 nM,CC(=O)N[C@@H](C)/C=C/c1ccc(Oc2ccc(CC3CC3)cc2Cl)nc1 [Compound I-380]
3,2700 nM,CCOc1ccc(Oc2ncc(/C=C/[C@H](C)NC(C)=O)cc2N)c(Cl)c1 [Compound I-430]

# Same assay, conditions: inhibition activity on human ACC2, Table 79; read-out: IC50
row,SMILES,IC50
1,COCCOCC(=O)N[C@@H](C)/C=C/c1cnc(Oc2ccc(OCC3CC3)cc2Cl)s1 [Compound I-104],450 nM
2,C[C@@H](/C=C/c1cnc(Oc2ccc(OCC3CC3)cc2Cl)s1)NC(=O)CCCn1cncn1 [Compound I-87],350 nM
3,CC(=O)N[C@@H](C)/C=C/c1cnn(Cc2ccc(OCC3CC3)cc2)c1 [Compound I-64],5900 nM
4,CC(=O)N[C@@H](C)/C=C/c1cnn(CCc2ccc(OCC3CC3)cc2)c1 [Compound I-66],5700 nM
5,CC(=O)N[C@@H](C)/C=C/c1cnc(Oc2cccc(OCC3CC3)c2Cl)s1 [Compound I-7],31 nM
6,CSCCC(=O)N[C@@H](C)/C=C/c1cnc(Oc2ccc(OCC3CC3)cc2Cl)s1 [Compound I-72],230 nM
7,CC(=O)N[C@@H](C)/C=C/c1cnn(Cc2c(Cl)cc(OCC3CC3)cc2Cl)c1 [Compound I-69],470 nM
8,CC(=O)N[C@@H](C)/C=C/c1cnc(Oc2ccc(NC(C)C)cc2Cl)nc1 [Compound I-55],4500 nM

# Next, values leading:
row,IC50,SMILES
1,2.2 nM,CC(=O)N[C@@H](C)/C=C/c1ccc(Oc2ccc(OCC3CC3)cc2Cl)cc1 [Compound I-57]
2,9.1 nM,CCCOc1ccc(Oc2ccc(/C=C/[C@H](C)NC(C)=O)cn2)c(Cl)c1 [Compound I-38]
3,7100 nM,COc1cncc(Oc2ccc(/C=C/[C@H](C)NC(C)=O)cn2)c1 [Compound I-34]

# Same assay, conditions: inhibition activity on human ACC2, Table 80; read-out: IC50
row,IC50,SMILES
1,4.5 nM,C[C@@H](/C=C/c1cnc(Oc2ccc(OCC3CC3)cc2Cl)s1)NC(=O)c1ccnc(C(=O)NC2CCOCC2)c1 [Compound I-209]
2,410 nM,C[C@@H](/C=C/c1cnc(Oc2ccc(OCC3CC3)cc2Cl)s1)NC(=O)c1ccnc(NCCO)c1 [Compound I-243]
3,660 nM,COC(=O)N[C@@H](C)/C=C/c1cnn(Cc2ccc(OCC3CC3)cc2Cl)c1 [Compound I-183]
4,220 nM,CC(=O)Nc1ncc(C(=O)N[C@@H](C)/C=C/c2cnc(Oc3ccc(OCC4CC4)cc3Cl)s2)s1 [Compound I-159]
5,36 nM,C[C@@H](/C=C/c1cnc(Oc2ccc(OCC3CC3)cc2Cl)s1)NC(=O)c1ccnc(NCCN2CCCC2)c1 [Compound I-244]
6,1100 nM,CCNC(=O)N[C@@H](C)/C=C/c1cnn(Cc2ccc(OCC3CC3)cc2Cl)c1 [Compound I-196]
7,1400 nM,CCN1CCN(CCC(=O)N[C@@H](C)/C=C/c2cnc(Oc3ccc(OCC4CC4)cc3Cl)s2)CC1 [Compound I-124]
8,920 nM,C[C@@H](/C=C/c1cnc(Oc2ccc(OCC3CC3)cc2Cl)s1)NC(=O)[C@H]1CNC(=O)O1 [Compound I-133]

# Same assay, conditions: inhibition activity on human ACC2, Table 82; read-out: IC50
row,IC50,SMILES
1,180 nM,CO/N=C(\C)c1ccc(Oc2ccc(/C=C/[C@H](C)NC(C)=O)cn2)c(Cl)c1 [Compound I-333]
2,29 nM,CC(=O)N[C@@H](C)/C=C/c1ccc(Oc2ccc(CC(C)C)cc2Cl)nc1 [Compound I-363]
3,29 nM,CCNC(=O)c1cc(C(=O)N[C@@H](C)/C=C/c2cnn(Cc3c(Cl)cc(OCC4CC4)cc3Cl)c2)ccn1 [Compound I-321]
4,2000 nM,CCCc1ccc(Oc2ccc(/C=C/[C@H](C)NC(C)=O)cn2)nc1 [Compound I-336]
5,300 nM,CC(=O)N[C@@H](C)/C=C/c1ccc(Oc2ccc(-c3ccccc3C#N)cc2Cl)nc1 [Compound I-347]
6,91 nM,CCc1ccc(Oc2ccc(/C=C/[C@H](C)NC(C)=O)cn2)c(Cl)c1 [Compound I-339]

# Same assay, conditions: inhibition activity on human ACC2, Table 84; read-out: IC50
row,SMILES,IC50
1,CC(=O)N[C@@H](C)/C=C/c1ccc(Oc2ccc(N3CCCCC3)nc2)nc1 [Compound I-516],170 nM
2,CC(=O)N[C@@H](C)/C=C/c1ccc(Oc2cnc(OCC3CC3)nc2)nc1 [Compound I-492],80 nM

# More lines, now with the values ahead:
row,IC50,SMILES
1,550 nM,CCOc1ccc(Oc2ccc(/C=C/[C@H](C)NC(C)=O)nc2)c(Cl)c1 [Compound I-489]
2,120 nM,CC(=O)N[C@@H](C)/C=C/c1ccc(Oc2ccc(Oc3cccnc3)cc2Cl)nc1 [Compound I-464]
3,550 nM,CC(=O)N[C@@H](C)/C=C/c1ccc(Oc2cc3sc(C)nc3cc2Cl)nc1 [Compound I-478]
4,20 nM,CCCc1ccc(Oc2ccc(/C=C/[C@H](C)NC(C)=O)cn2)c(Cl)c1Cl [Compound I-440]
5,33 nM,CCCc1ccc(Oc2ccc(/C=C/[C@H](C)NC(C)=O)cn2)c(C)c1 [Compound I-437]
6,65 nM,CCOc1ccc(Oc2ncc(/C=C/[C@H](C)NC(C)=O)cc2C)c(Cl)c1 [Compound I-442]
7,27 nM,CC(=O)N[C@@H](C)/C=C/c1ccc(Oc2ccc3c(c2)CC(C)(C)O3)nc1 [Compound I-498]
8,140 nM,CC(=O)N[C@@H](C)/C=C/c1ccc(Oc2ccc(CC(C)(C)C)cc2Cl)cn1 [Compound I-512]
9,22 nM,CC(=O)N[C@@H](C)/C=C/c1cnc(Oc2ccc(OCC3CC3)cc2Cl)c(C)c1 [Compound I-443]
10,6.9 nM,CC(=O)N[C@@H](C)/C=C/c1ccc(Oc2ccc3nc(C(C)C)sc3c2Cl)nc1 [Compound I-477]
11,450 nM,CC(=O)N[C@@H](C)/C=C/c1ccc(Oc2ccc3c(C)noc3c2)nc1 [Compound I-456]
12,16 nM,CCOc1ccc(Oc2ccc(/C=C(\F)[C@H](C)NC(C)=O)cn2)c(Cl)c1 [Compound I-471]
13,25 nM,CC(=O)N[C@@H](C)/C=C/c1cnc(Oc2ccc(OCC3CC3)cc2Cl)c(F)c1 [Compound I-447]

# Same assay, conditions: inhibition activity on human ACC2, untitled table (Table 81); read-out: IC50
row,SMILES,IC50
1,CCNC(=O)c1cc(C(=O)N[C@@H](C)/C=C/c2cnn(Cc3ccc(OC(F)(F)F)cc3)c2)ccn1 [Compound I-308],480 nM
2,CCNC(=O)c1cc(C(=O)N[C@@H](C)/C=C/c2cnn(Cc3ccc(Oc4ccccc4)cc3)c2)ccn1 [Compound I-307],48 nM
3,CC(=O)N[C@@H](C)/C=C/c1cnc(Oc2ccc(Br)c(Cl)c2)nc1 [Compound I-274],350 nM
4,CCNC(=O)c1cc(C(=O)N[C@@H](C)/C=C/c2cnn(Cc3ccc(F)c(C(F)(F)F)c3)c2)ccn1 [Compound I-309],2800 nM
5,CC(=O)N[C@@H](C)/C=C/c1cnn(Cc2c(F)cc(OCC3CC3)cc2F)c1 [Compound I-261],3000 nM
6,CCOc1ccc(Oc2cnc(/C=C/[C@H](C)NC(C)=O)cn2)cc1Cl [Compound I-299],38 nM

# Further lines, results first:
row,IC50,SMILES
1,390 nM,COc1ccc(Oc2ccc(/C=C(\C)C(C)NC(C)=O)cn2)c(Cl)c1 (centres unmarked) [Compound I-270]
2,17 nM,CCC(C)(C)c1ccc(Oc2ccc(/C=C/[C@H](C)NC(C)=O)cn2)c(Cl)c1 [Compound I-253]
3,50 nM,CC(=O)N[C@@H](C)/C=C/c1ccc(Oc2ccc(NC(=O)CCCCl)cc2Cl)nc1 [Compound I-256]
4,170 nM,CCOc1cc(Oc2ccc(/C=C/[C@H](C)NC(C)=O)cn2)ccc1F [Compound I-280]
